The subject of data set [1] is SARS-CoV-2 (Wuhan variant). Kind of data set: Quantification of viral RNA synthesis by RT-qPCR. In kind it is cell-based. The settings on record: 10 µM, Vero cells, 48 h.
Data set [2] concerns SARS-CoV-2 (Wuhan variant). The data set can be described thus: Viral membrane interaction study (virus pre-treatment at 37 °C or 4 °C). The note with it: 10 µM; for virus' viability after pre-treatment at 4 °C (assay B): 1 h at 4 °C; for virus' ability to form plaques after pre-treatment at 37 °C (assay A): 1 h at 37 °C. Format: cell-based.
Data set [3] has as its system SARS-CoV-2 (Wuhan variant). The data set can be described thus: Fusion assay. The settings on record: for reduction in plaque numbers (fusion assay): 1 and 10 µM, compounds added after virus attachment at 4 °C, then 37 °C.

Molecules are shown by their SMILES.

Data on 3 compounds can be found in publication PMC10307035, “Antiviral activity of singlet oxygen-photogenerating perylene compounds against SARS-CoV-2: Interaction with the viral envelope and photodynamic virion inactivation” (Virus Research, 2023).

As for `O=C(NCCCCO)c1ccc(-c2ccc3c4cccc5cccc(c6cccc2c63)c54)s1` [Compound 17], the “synthesis of viral genomic RNA” value in data set [1] is reported as “suppressed the synthesis of viral genomic RNA”. Besides, in data set [2], the “virus' viability after pre-treatment at 4 °C (assay B)” value was “partially restored” and the “virus' ability to form plaques after pre-treatment at 37 °C (assay A)” value is given as “completely inhibited”. The “cytotoxicity to Vero cells in the fusion assay” value in data set [3] (10 µM) is listed as “observable cytotoxicity”. Besides, the “reduction in plaque numbers (fusion assay)” value in data set [3] is “statistically significant reduction in plaque numbers”.
As to `O=c1[nH]c(=O)n([C@H]2C[C@H](O)[C@@H](CO)O2)cc1C#Cc1ccc2c3cccc4cccc(c5cccc1c52)c43` [Compound 2, 5-(perylen-3-yl)ethynyl-2′-deoxy-uridine], the “synthesis of viral genomic RNA” value in data set [1] is “suppressed the synthesis of viral genomic RNA”. Also, in data set [2], the “virus' viability after pre-treatment at 4 °C (assay B)” value is “partially restored” and the “virus' ability to form plaques after pre-treatment at 37 °C (assay A)” value is “completely inhibited”. In addition, in data set [3], the “reduction in plaque numbers (fusion assay)” value is recorded as “significantly decreased plaque counts only at 10 µM”.
For `CC(C)(C)C(=O)OCn1c(=O)c(C#Cc2ccc3c4cccc5cccc(c6cccc2c63)c54)cn(CC(=O)N(CCO)CCO)c1=O` [Compound 13] the same measures were “suppressed the synthesis of viral genomic RNA”, “partially restored”, “completely inhibited” and “statistically significant reduction in plaque numbers”.
